Reference: PubChem BioAssay (NCI)
Values joined by “and” are separate entries in the source; they are usually repeats but may differ in a detail not shown here. Identical values can stand only once.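 Step 1: Grow cells in 96-well plates. Step 2: Expose to compound for 48 hours at 5 concentrations. Step 3: Interpolate endpoints linearly; if unreached, use highest concentration. GI50 = concentration required for 50% inhibition of growth. TGI marks complete inhibition of growth.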

Experiments:
Assay in all cases: inhibition of tumour cell growth, NCI panel, 48 h
[1] = tested on: M19-MEL melanoma
[2] = tested on: HOP-62 NSCLC
[3] = tested on: UACC-62 melanoma
[4] = tested on: NCI/ADR-RES ovarian
[5] = tested on: LOX IMVI melanoma
[6] = tested on: SK-MEL-28 melanoma
[7] = tested on: ACHN renal
[8] = tested on: DLD-1 colon
[9] = tested on: MDA-MB-231 breast
[10] = tested on: SK-MEL-5 melanoma

Row | SMILES | TGI [1] | TGI [2] | TGI [3] | TGI [4] | TGI [5] | TGI [6] | TGI [7] | TGI [8] | TGI [9] | TGI [10] | GI50 [1] | GI50 [2] | GI50 [3] | GI50 [5] | GI50 [6] | GI50 [7] | GI50 [9]
1 | CC(=O)OC1=CC2(OC(C)=O)CC(C)(C)C1C1C(=O)C=CC(=O)C12 (centres undefined) | > 100 µM | > 100 µM | 56.7 µM | > 100 µM | > 56.1 µM | > 100 µM | 45.9 µM | > 100 µM | > 100 µM | > 100 µM |  |  |  |  |  |  | 
2 | CC1=Nc2c([nH]c(=S)[nH]c2=O)NC(c2c(Cl)cccc2Cl)C1 (centres undefined) | 3.17 µM | 13.6 µM | 4.45 µM | 0.412 µM | 1.84 µM | 6.26 µM | 11 µM | 5.85 µM | 1.87 µM | 9.99 µM |  |  |  |  |  |  | 
3 | COc1ccc2c(c1)-c1nn(CCCN(C)C)c3ccc([N+](=O)[O-])c(c13)N2 | 3.39 µM and 11.8 µM | 1.06 µM and 5.26 µM | 2.44 µM and 5.2 µM | 2.93 µM and 1.42 µM | 0.957 µM and 4.08 µM | 7.78 µM and 12.6 µM | 1.25 µM and 3.69 µM | 5.24 µM and 6.12 µM | 2.79 µM and 12 µM | 2 µM and 2.92 µM | 0.255 µM and 0.545 µM | 0.104 µM and 0.686 µM | 0.314 µM and 0.934 µM | 0.101 µM and 0.345 µM | 0.77 µM and 1.75 µM | 0.102 µM and 0.26 µM | 0.198 µM and 1.17 µM
4 | CCc1nc(N)nc(N)c1-c1ccc(Cl)c(N=[N+]=[N-])c1 | > 100 µM | > 59.8 µM and 62.8 µM | 24.8 µM and 26.8 µM | 63.9 µM and 99.4 µM | > 100 µM and 67.7 µM | > 87.7 µM and 60.5 µM | > 100 µM | > 100 µM | > 67.6 µM and 46.5 µM | 19.1 µM and 18.2 µM |  |  | 0.78 µM and 3.13 µM |  |  | 2.33 µM and 4.75 µM | 
